The source of these data is PubChem BioAssay (NCI).

Among the test systems are SF-539 CNS; DU-145 prostate; NCI-H226 lung; HCT-15 colon; SF-268 CNS; SW-620 colon; MDA-MB-231 breast; 786-0 renal; K-562 leukemia; RXF 393 renal.
Holding throughout (assay): NCI anticancer screen, dose series, 48 h

Structures are written as SMILES. Where “and” joins values, the source holds several entries; their conditions need not be identical. Identical values can stand only once.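 A five-concentration, 48-hour dose response in 96-well plates underlies each endpoint, interpolated linearly between surrounding concentrations. GI50 is the concentration that inhibits growth by half. TGI marks complete inhibition of growth.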

`COc1cc(C2C3=C(COC3=O)Nc3c2ccc2c3CCCC2)cc2c1OCO2` (centres undefined): the GI50 was 0.0331 µM in the assay on SF-539 CNS; 0.0416 µM with DU-145 prostate; 0.0343 µM in the assay with NCI-H226 lung; 0.0432 µM in the assay with HCT-15 colon; 0.107 µM in the assay on SF-268 CNS; 0.0399 µM in the assay with SW-620 colon. Besides, the GI50 with MDA-MB-231 breast was 0.0779 µM; in the assay on 786-0 renal, 0.0757 µM; in the assay with K-562 leukemia it was 0.0351 µM. Moreover, the TGI with SF-539 CNS is 13.4 µM; in the assay on DU-145 prostate, 0.505 µM; with NCI-H226 lung it was 0.185 µM; in the assay with HCT-15 colon, more than 100 µM; in the assay on SF-268 CNS, 19.6 µM; in the assay on SW-620 colon, more than 100 µM. Besides, the TGI in the assay on 786-0 renal is 14.4 µM; in the assay on K-562 leukemia it was more than 100 µM.
Consider `CC(C)n1nc(-c2ccc3oc(N)nc3c2)c2c(N)ncnc21`, for which the GI50 in the assay on SF-539 CNS was 0.0184 µM and 0.0175 µM; with DU-145 prostate it was 0.0203 µM and 0.0208 µM; in the assay with NCI-H226 lung it was less than 0.01 µM; in the assay on HCT-15 colon, 0.0126 µM and 0.0164 µM; in the assay on RXF 393 renal it was less than 0.01 µM; with SF-268 CNS, 0.0151 µM and 0.0154 µM. For the same compound, the GI50 in the assay on SW-620 colon was 0.037 µM and 0.0379 µM; in the assay with MDA-MB-231 breast it was 0.0165 µM and 0.0211 µM; in the assay with 786-0 renal, 0.0146 µM and 0.0266 µM; in the assay on K-562 leukemia, 0.0431 µM and 0.0376 µM. In addition, the TGI in the assay on SF-539 CNS is 0.0902 µM and 0.113 µM; in the assay on DU-145 prostate it was 11.9 µM and 6.63 µM; in the assay with NCI-H226 lung, 0.371 µM and 0.231 µM; in the assay with HCT-15 colon it was 11.3 µM and > 35.2 µM; in the assay with RXF 393 renal, 0.043 µM and 0.0533 µM; with SF-268 CNS, 2.88 µM and 1.85 µM. Moreover, the TGI with SW-620 colon is 21.1 µM and 12.6 µM; with MDA-MB-231 breast, 1.97 µM and 1.7 µM; in the assay on 786-0 renal, 0.4 µM and 1.41 µM; in the assay on K-562 leukemia it was more than 100 µM.
Consider `C/C(=N\NC(=S)N1CC2CCC(CC2)C1)c1cccc(C)n1`, for which the GI50 in the assay on SF-539 CNS is 0.464 µM; in the assay with DU-145 prostate, 0.378 µM; with HCT-15 colon, 0.307 µM; with SW-620 colon, 0.383 µM; in the assay on K-562 leukemia it was less than 0.0001 µM. The TGI came to 2.58 µM in the assay with SF-539 CNS; 7.1 µM in the assay on DU-145 prostate; 7.73 µM in the assay on NCI-H226 lung; 17.4 µM in the assay with HCT-15 colon; 14.8 µM in the assay with RXF 393 renal; 13 µM with SF-268 CNS. Besides, the TGI in the assay with SW-620 colon stood at 31.8 µM; in the assay with MDA-MB-231 breast, 17.8 µM; in the assay on 786-0 renal, 11.7 µM.
For the compound `C[C@]1(Cn2ccnn2)C(C(=O)O)N2C(=O)CC2S1(=O)=O` (some centres undefined), the GI50 in the assay on SF-539 CNS, in the assay with DU-145 prostate, in the assay on NCI-H226 lung, with HCT-15 colon, in the assay on RXF 393 renal and with SF-268 CNS was more than 100 µM each time. Besides, the GI50 with SW-620 colon, with MDA-MB-231 breast, in the assay on 786-0 renal and with K-562 leukemia was more than 100 µM throughout. Moreover, the TGI in the assay on SF-539 CNS, in the assay on DU-145 prostate, in the assay on NCI-H226 lung, in the assay with HCT-15 colon, with RXF 393 renal and in the assay on SF-268 CNS was more than 100 µM each time. The TGI in the assay with SW-620 colon, in the assay on MDA-MB-231 breast, in the assay on 786-0 renal and in the assay on K-562 leukemia was more than 100 µM each time.
As to `CC(C)CC(Nc1c(O)ccc2ccccc12)C(=O)O` (centres undefined), the TGI in the assay with SF-539 CNS is 47.6 µM; in the assay on DU-145 prostate, more than 100 µM; in the assay with NCI-H226 lung, 62.1 µM; in the assay on HCT-15 colon, more than 100 µM; in the assay on RXF 393 renal it was 35.8 µM; in the assay on SF-268 CNS, 83.3 µM. In addition, the TGI in the assay on SW-620 colon, in the assay with MDA-MB-231 breast, with 786-0 renal and in the assay with K-562 leukemia was more than 100 µM each time.
As to `CCCCNC(=O)c1cc(NCc2cc(O)ccc2O)ccc1O`, the GI50 with SF-539 CNS is 4.16 µM; in the assay with DU-145 prostate, 15.9 µM; with HCT-15 colon, 10.7 µM; in the assay on RXF 393 renal, 8.53 µM; with SF-268 CNS it was 10.3 µM; in the assay on SW-620 colon, 18.9 µM. Further, the GI50 in the assay with MDA-MB-231 breast is 7.41 µM; in the assay with 786-0 renal it was 10.8 µM; with K-562 leukemia, 16.6 µM. Moreover, the TGI is 17.1 µM with SF-539 CNS; 29.6 µM in the assay on DU-145 prostate; 32.4 µM in the assay on HCT-15 colon; 21.4 µM in the assay with RXF 393 renal; 23.6 µM with SF-268 CNS; 43.4 µM in the assay on SW-620 colon. For the same compound, the TGI in the assay on MDA-MB-231 breast amounted to 21.7 µM; in the assay with 786-0 renal it was 23.2 µM; with K-562 leukemia, 75.2 µM.
On to `Cc1cc(C(=O)NC(CCC(=O)O)C(=O)O)sc1CCC1CNc2nc(N)[nH]c(=O)c2C1` (centres undefined), for which the GI50 in the assay with SF-539 CNS was 0.0383 µM and 0.0521 µM; with DU-145 prostate it was < 0.0158 µM and 0.0407 µM; in the assay with NCI-H226 lung, less than 0.0128 µM; in the assay on HCT-15 colon it was 0.0502 µM and 0.33 µM; with RXF 393 renal, 0.015 µM and < 0.0158 µM; in the assay with SF-268 CNS it was 0.044 µM and 0.0721 µM. In addition, the GI50 with SW-620 colon is < 0.0174 µM and 0.0255 µM; in the assay with MDA-MB-231 breast, 6.72 µM and 12.8 µM; in the assay on 786-0 renal, less than 0.01 µM; in the assay on K-562 leukemia it was less than 0.01 µM. Also, the TGI with SF-539 CNS, in the assay with DU-145 prostate, in the assay on NCI-H226 lung, in the assay on HCT-15 colon, in the assay on RXF 393 renal and in the assay on SF-268 CNS was more than 100 µM throughout. Further, the TGI in the assay with SW-620 colon, in the assay with MDA-MB-231 breast, in the assay with 786-0 renal and in the assay with K-562 leukemia was more than 100 µM each time.
For `CCCNC(=O)c1ccc(Cl)cc1Cl`, the GI50 with SF-539 CNS, in the assay with DU-145 prostate, in the assay with NCI-H226 lung, in the assay on HCT-15 colon, in the assay with RXF 393 renal and with SF-268 CNS was more than 100 µM each time. Further, the GI50 in the assay on SW-620 colon, with MDA-MB-231 breast, with 786-0 renal and in the assay with K-562 leukemia was more than 100 µM in each case. Further, the TGI in the assay with SF-539 CNS, in the assay on DU-145 prostate, in the assay on NCI-H226 lung, with HCT-15 colon, in the assay on RXF 393 renal and in the assay with SF-268 CNS was more than 100 µM each time. Moreover, the TGI in the assay on SW-620 colon, in the assay with MDA-MB-231 breast, in the assay with 786-0 renal and in the assay on K-562 leukemia was more than 100 µM throughout.
